Laboratory results as given in patent US9499550B2 (BRISTOL-MYERS SQUIBB COMPANY, priority 2012, dated 2016).

Tests used:
[1] = tested on: HCV genotype 1a (H77 strain) replicon in HUH-7 cells; assay: HCV replicon luciferase reporter assay, genotype 1a; assay type: cell-based; settings: Hepatitis C virus, Huh-7, 72 h, HCV genotype 1a replicon luciferase, 3 days incubation, read-out: LE_1a (EC50, range)
Summary of the method: (§1)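 Replicon inhibition for both genotypes was measured as Renilla luciferase signal (EnduRen, 7.5 μM final, 2 h) after 3-day, 37° C exposure of replicon-bearing HUH-7 cells in 4% FCS DMEM, 0.5% DMSO. The 1b construct carries S1179I; the 1a H77 construct carries P1496L and S2204I. Twenty-point, 3-fold dilutions were fitted four-parametrically for EC50, and CC50 was taken from multiplexed Cell Titer-Blue.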

[2] = tested on: HCV genotype 1b (Con1) replicon in HUH-7 cells; assay: HCV replicon luciferase reporter assay, genotype 1b; assay type: cell-based; settings: Hepatitis C virus, Huh-7, 72 h, HCV genotype 1b replicon luciferase, 3 days incubation, read-out: LE_1b (EC50, range)
Summary of the method: as §1

| Structure (SMILES) | EC50 [1] | EC50 [2] |
| --- | --- | --- |
| C[C@H]1CC/C=C\[C@@H]2C[C@@]2(C(=O)NS(=O)(=O)C2CC2)NC(=O)[C@@H]2C[C@@H](Oc3nccc4c5c(ccc34)OCCO5)CN2C(=O)[C@@H](NC(=O)O[C@@H]2C[C@@H]3C[C@@H]3C2)[C@H](C)C1 [Compound 5263, (1R,3r,5S)-bicyclo[3.1.0]hexan-3-yl((2R,6S,7R,9S,13aS,14aR,16aS,Z)-14a-((cyclopropylsulfonyl)carbamoyl)-2-((2,3-dihydro-[1,4]dioxino[2,3-f]isoquinolin-7-yl)oxy)-7,9-dimethyl-5,16-dioxo-1,2,3,5,6,7,8,9,10,11,13a,14,14a,15,16,16a-hexadecahydrocyclopropa[e]pyrrolo[1,2-a][1,4]diazacyclopentadecin-6-yl)carbamate] | 4.82 to 103 nM | < 5.46 nM |
| C[C@@H]1CC/C=C\[C@@H]2C[C@@]2(C(=O)NS(=O)(=O)C2CC2)NC(=O)[C@@H]2C[C@@H](Oc3nccc4c5c(ccc34)OCCO5)CN2C(=O)[C@@H](NC(=O)O[C@@H]2C[C@@H]3C[C@@H]3C2)[C@H](C)C1 [Compound 5264, (1R,3r,5S)-bicyclo[3.1.0]hexan-3-yl((2R,6S,7R,9R,13aS,14aR,16aS,Z)-14a-((cyclopropylsulfonyl)carbamoyl)-2-((2,3-dihydro-[1,4]dioxino[2,3-f]isoquinolin-7-yl)oxy)-7,9-dimethyl-5,16-dioxo-1,2,3,5,6,7,8,9,10,11,13a,14,14a,15,16,16a-hexadecahydrocyclopropa[e]pyrrolo[1,2-a][1,4]diazacyclopentadecin-6-yl)carbamate] | < 5.46 nM | < 5.46 nM |
| CCC(C)(CC)OC(=O)N[C@@H]1C(=O)N2C[C@H](Oc3nccc4c5c(ccc34)OCCO5)C[C@H]2C(=O)N[C@]2(C(=O)NS(=O)(=O)C3CC3)C[C@H]2/C=C\CC[C@H](C)C[C@H]1C [Compound 5265, 3-methylpentan-3-yl((2R,6S,7R,9S,13aS,14aR,16aS,Z)-14a-((cyclopropylsulfonyl)carbamoyl)-2-((2,3-dihydro-[1,4]dioxino[2,3-f]isoquinolin-7-yl)oxy)-7,9-dimethyl-5,16-dioxo-1,2,3,5,6,7,8,9,10,11,13a,14,14a,15,16,16a-hexadecahydrocyclopropa[e]pyrrolo[1,2-a][1,4]diazacyclopentadecin-6-yl)carbamate] | 4.82 to 103 nM | < 5.46 nM |
| CCC(C)(CC)OC(=O)N[C@@H]1C(=O)N2C[C@H](Oc3nccc4c5c(ccc34)OCCO5)C[C@H]2C(=O)N[C@]2(C(=O)NS(=O)(=O)C3CC3)C[C@H]2/C=C\CC[C@@H](C)C[C@H]1C [Compound 5266, 3-methylpentan-3-yl((2R,6S,7R,9R,13aS,14aR,16aS,Z)-14a-((cyclopropylsulfonyl)carbamoyl)-2-((2,3-dihydro-[1,4]dioxino[2,3-f]isoquinolin-7-yl)oxy)-7,9-dimethyl-5,16-dioxo-1,2,3,5,6,7,8,9,10,11,13a,14,14a,15,16,16a-hexadecahydrocyclopropa[e]pyrrolo[1,2-a][1,4]diazacyclopentadecin-6-yl)carbamate] | < 5.46 nM | < 5.46 nM |
| C[C@H]1CC/C=C\[C@@H]2C[C@@]2(C(=O)NS(=O)(=O)C2CC2)NC(=O)[C@@H]2C[C@@H](Oc3nccc4c5c(ccc34)OC(F)(F)O5)CN2C(=O)[C@@H](NC(=O)OC(C)(C)C(F)(F)F)[C@H](C)C1 [Compound 5267, 1,1,1-trifluoro-2-methylpropan-2-yl((2R,6S,7R,9S,13aS,14aR,16aS,Z)-14a-((cyclopropylsulfonyl)carbamoyl)-2-((2,2-difluoro-[1,3]dioxolo[4,5-f]isoquinolin-6-yl)oxy)-7,9-dimethyl-5,16-dioxo-1,2,3,5,6,7,8,9,10,11,13a,14,14a,15,16,16a-hexadecahydrocyclopropa[e]pyrrolo[1,2-a][1,4]diazacyclopentadecin-6-yl)carbamate] | 4.82 to 103 nM | 4.82 to 103 nM |
| C[C@@H]1CC/C=C\[C@@H]2C[C@@]2(C(=O)NS(=O)(=O)C2CC2)NC(=O)[C@@H]2C[C@@H](Oc3nccc4c5c(ccc34)OC(F)(F)O5)CN2C(=O)[C@@H](NC(=O)OC(C)(C)C(F)(F)F)[C@H](C)C1 [Compound 5268, 1,1,1-trifluoro-2-methylpropan-2-yl((2R,6S,7R,9R,13aS,14aR,16aS,Z)-14a-((cyclopropylsulfonyl)carbamoyl)-2-((2,2-difluoro-[1,3]dioxolo[4,5-f]isoquinolin-6-yl)oxy)-7,9-dimethyl-5,16-dioxo-1,2,3,5,6,7,8,9,10,11,13a,14,14a,15,16,16a-hexadecahydrocyclopropa[e]pyrrolo[1,2-a][1,4]diazacyclopentadecin-6-yl)carbamate] | < 5.46 nM | < 5.46 nM |
| C[C@H]1CC/C=C\[C@@H]2C[C@@]2(C(=O)NS(=O)(=O)C2CC2)NC(=O)[C@@H]2C[C@@H](Oc3nccc4c5c(ccc34)OC(F)(F)O5)CN2C(=O)[C@@H](NC(=O)O[C@H](C)C(F)(F)F)[C@H](C)C1 [Compound 5269, (R)-1,1,1-trifluoropropan-2-yl ((2R,6S,7R,9S,13aS,14aR,16aS,Z)-14a-((cyclopropylsulfonyl)carbamoyl)-2((2,2-difluoro-[1,3]dioxolo[4,5-f]isoquinolin-6-yl)oxy)-7,9-dimethyl-5,16-dioxo-1,2,3,5,6,7,8,9,10,11,13a,14,14a,15,16,16a-hexadecahydrocyclopropa[e]pyrrolo[1,2-a][1,4]diazacyclopentadecin-6-yl)carbamate] | 4.82 to 103 nM | 4.82 to 103 nM |
| C[C@@H]1CC/C=C\[C@@H]2C[C@@]2(C(=O)NS(=O)(=O)C2CC2)NC(=O)[C@@H]2C[C@@H](Oc3nccc4c5c(ccc34)OC(F)(F)O5)CN2C(=O)[C@@H](NC(=O)O[C@H](C)C(F)(F)F)[C@H](C)C1 [Compound 5270, (R)-1,1,1-trifluoropropan-2-yl ((2R,6S,7R,9R,13aS,14aR,16aS,Z)-14a-((cyclopropylsulfonyl)carbamoyl)-2((2,2-difluoro-[1,3]dioxolo[4,5-f]isoquinolin-6-yl)oxy)-7,9-dimethyl-5,16-dioxo-1,2,3,5,6,7,8,9,10,11,13a,14,14a,15,16,16a-hexadecahydrocyclopropa[e]pyrrolo[1,2-a][1,4]diazacyclopentadecin-6-yl)carbamate] | < 5.46 nM | < 5.46 nM |
| C[C@H]1CC/C=C\[C@@H]2C[C@@]2(C(=O)NS(=O)(=O)C2CC2)NC(=O)[C@@H]2C[C@@H](Oc3nccc4c5c(ccc34)OC(F)(F)O5)CN2C(=O)[C@@H](NC(=O)OCC2(C)CC2)[C@H](C)C1 [Compound 5271, (1-methylcyclopropyl)methyl ((2R,6S,7R,9S,13aS,14aR,16aS,Z)-14a-((cyclopropylsulfonyl)carbamoyl)-2-((2,2-difluoro-[1,3]dioxolo[4,5-f]isoquinolin-6-yl)oxy)-7,9-dimethyl-5,16-dioxo-1,2,3,5,6,7,8,9,10,11,13a,14,14a,15,16,16a-hexadecahydrocyclopropa[e]pyrrolo[1,2-a][1,4]diazacyclopentadecin-6-yl)carbamate] | 4.82 to 103 nM | 4.82 to 103 nM |
| C[C@@H]1CC/C=C\[C@@H]2C[C@@]2(C(=O)NS(=O)(=O)C2CC2)NC(=O)[C@@H]2C[C@@H](Oc3nccc4c5c(ccc34)OC(F)(F)O5)CN2C(=O)[C@@H](NC(=O)OCC2(C)CC2)[C@H](C)C1 [Compound 5272, (1-methylcyclopropyl)methyl ((2R,6S,7R,9R,13aS,14aR,16aS,Z)-14a-((cyclopropylsulfonyl)carbamoyl)-2-((2,2-difluoro-[1,3]dioxolo[4,5-f]isoquinolin-6-yl)oxy)-7,9-dimethyl-5,16-dioxo-1,2,3,5,6,7,8,9,10,11,13a,14,14a,15,16,16a-hexadecahydrocyclopropa[e]pyrrolo[1,2-a][1,4]diazacyclopentadecin-6-yl)carbamate] | < 5.46 nM | < 5.46 nM |
| C[C@H]1CC/C=C\[C@@H]2C[C@@]2(C(=O)NS(=O)(=O)C2CC2)NC(=O)[C@@H]2C[C@@H](Oc3nccc4c5c(ccc34)N(C)CCO5)CN2C(=O)[C@@H](NC(=O)OC(C)(C)C)[C@H](C)C1 [Compound 5275, tert-butyl ((2R,6S,7R,9S,13aS,14aR,16aS,Z)-14a-((cyclopropylsulfonyl)carbamoyl)-7,9-dimethyl-2-((4-methyl-3,4-dihydro-2H-[1,4]oxazino[2,3-f]isoquinolin-7-yl)oxy)-5,16-dioxo-1,2,3,5,6,7,8,9,10,11,13a,14,14a,15,16,16a-hexadecahydrocyclopropa[e]pyrrolo[1,2-a][1,4]diazacyclopentadecin-6-yl)carbamate] | < 5.46 nM | < 5.46 nM |
| C[C@@H]1CC/C=C\[C@@H]2C[C@@]2(C(=O)NS(=O)(=O)C2CC2)NC(=O)[C@@H]2C[C@@H](Oc3nccc4c5c(ccc34)N(C)CCO5)CN2C(=O)[C@@H](NC(=O)OC(C)(C)C)[C@H](C)C1 [Compound 5276, tert-butyl ((2R,6S,7R,9R,13aS,14aR,16aS,Z)-14a-((cyclopropylsulfonyl)carbamoyl)-7,9-dimethyl-2-((4-methyl-3,4-dihydro-2H-[1,4]oxazino[2,3-f]isoquinolin-7-yl)oxy)-5,16-dioxo-1,2,3,5,6,7,8,9,10,11,13a,14,14a,15,16,16a-hexadecahydrocyclopropa[e]pyrrolo[1,2-a][1,4]diazacyclopentadecin-6-yl)carbamate] | < 5.46 nM | < 5.46 nM |
